The record followed here is US20210338694A1, “SOS1 ALLOSTERIC SITE TARGETING” (priority 2020, published 2021).

The subject of the first assay is Kras (G12D) transformed pancreatic cancer cells (4039). In words: Cell growth in tissue culture over a four-day period. In kind it is cell-based. The settings on record: 40 μM, Kras (G12D) cells 4039, FIG. 1. As to the method:
Kras (G12D) transformed pancreatic cancer cells (4039) and wild-type Kras expressing pancreatic cancer cells (4037) were each exposed to 40 μM of NSC-70220. Cell growth in the tissue culture was monitored by assays over a four-day period.
Take `O=[N+]([O-])c1ccccc1/C=C/C=C1c2ccccc2-c2ccccc21` [NSC-70220]: the “inhibition of cell growth” value is reported as “selectively inhibits”.

The next assay deals with Mononuclear bone marrow cells harvested from Kras G12D/+ mice. In words: CellTiter-Glo Luminescent Cell Viability Assay (growth inhibitory assay). In kind it is cell-based. The settings on record: Mus musculus, 48 h, 40 μM compound, two days of incubation, percentage of cells still alive at the end of the experiment, read-out: 40 μM (% Residual Activity). As for the experimental part: Mononuclear bone marrow cells harvested from Kras G12D/+ mice were tested for proliferation in a CellTiter-Glo® Luminescent Cell Viability Assay by Promega (Madison, Wis.) carried out by following the instructions provided by the manufacturer in the presence of 40 μM of 176 selected test compounds. […] The structures of these active compounds are shown in Table 1, along with the percentage of residual activity after two days of incubation with 40 μM of the compound. The residual activity is the percentage of cells that were still alive at the end of the experiment.
In general terms: ATP-based viability assays read luminescence as a measure of living cells.
As for `O=C(Nc1ccccc1C(=O)O)c1ccc([N+](=O)[O-])cc1` [Compound 114395], the activity at 40 µM amounted to 16%. Regarding `O=C(N/N=C(/C=C/c1ccccc1)c1ccccc1)c1ccccc1O` [Compound 121366], the activity at 40 µM worked out at 12%.

With `O=C(NCc1ccccc1)/C(=C/C=C\c1ccccc1)NC(=O)c1ccccc1` [Compound 127987], the activity at 40 µM is 5%. On the same count and under the same terms, in the case of `COc1ccc(C=C2c3ccccc3-c3ccccc32)cc1` [Compound 262294] it was 13%; in that of `C=CCc1ccc(/C=N/NC(=O)c2ccccc2O)cc1O` [Compound 290794], 2%. Still for that read-out and setting: in the case of `Cc1cc(C)c2oc(-c3ccc(C)c(/N=C/C=C/c4ccc(Br)c([N+](=O)[O-])c4)c3)nc2c1` [Compound 312987] it was 8%; in that of `O=C(N/N=C/c1ccc(O)c(O)c1)c1ccc(-c2ccccc2)cc1` [Compound 377089], 6%; in that of `O=C(N/N=C/c1ccc(OCc2ccccc2)cc1)c1cccc(F)c1` [Compound 377247], 11%. The same measure, in the same setting: in the case of `O=C(/C=C(\O)C(F)(F)/C(O)=C/C(=O)c1ccccc1)c1ccccc1` [Compound 387846] it was 9%; in that of `O=C(N/N=C/C=C/c1ccc([N+](=O)[O-])o1)c1ccccc1O` [Compound 388883], 1%; in that of `O=C(NC(=S)NNC(=O)c1ccccc1O)c1ccc(-c2ccccc2)cc1` [Compound 390481], 10%. For `O=C(N/N=C/c1ccc2ccccc2c1)c1ccccc1O` [Compound 393689], the activity at 40 µM came to 11%. As to `O=C(N/N=C/c1ccc(O)c(Br)c1)c1cc(Br)ccc1O` [Compound 394392], the activity at 40 µM is 3%. On the same count and under the same terms, in the case of `O=[N+]([O-])c1ccc(C=C(c2nc3ccccc3s2)c2nc3ccccc3s2)cc1` [Compound 408776] it was 12%. On the same count and under the same terms, in the case of `O=C(NNC(=O)c1ccccc1C(=O)O)c1ccccc1O` [Compound 473089] it was 13%; in that of `O=C(/C=C/c1ccc(/C=C/C(=O)c2ccc(O)cc2)cc1)c1ccc(O)cc1` [Compound 511128], 1%; in that of `O=C(C(=Cc1ccccc1[N+](=O)[O-])C(=O)c1ccccc1)c1ccccc1` [Compound 526470], 15%. The same measure, in the same setting: in the case of `O=C(Nc1cc(Cl)ccc1O)c1ccc(Cl)c(C(=O)c2ccc(Cl)cc2)c1` [Compound 773778] it was 8%; in that of `O=C(/C=C/c1ccccc1[N+](=O)[O-])c1ccco1` [Compound 775432], 0%. As for `O=C(NC(=S)Nc1ccccc1O)c1ccc(-c2ccccc2)cc1` [Compound 920300], the activity at 40 µM came to 12%. The same measure, in the same setting: in the case of `O=[N+]([O-])c1ccccc1/C=C/C=C1c2ccccc2-c2ccccc21` [NSC-70220] it was 12 to 15%.

The test system of another assay is oncogenic Kras (G12C) transformed pancreatic MIA-PaCa-2 cells. As to the kind of experiment: Cell growth of treated cells. In kind it is cell-based. The settings on record: Kras (G12C) MIA-PaCa-2 cells, FIGS. 3-5. As for the experimental part: FIGS. 3-5 show data from experiments in which oncogenic Kras (G12C) transformed pancreatic MIA-PaCa-2 cells were treated with NSC-70220, and an experiment in which wild-type Kras expressing pancreatic BxPC-3 ductal cells were treated with NSC-70220.
Consider `O=[N+]([O-])c1ccccc1/C=C/C=C1c2ccccc2-c2ccccc21` [NSC-70220], for which the inhibition of growth result is “selectively inhibits growth”.

The test system of a further assay is ERK activation of oncogenic Kras (G12D) pancreatic cancer cells. In words: ERK activation by Western blotting of p-ERK, total ERK. The settings on record: Western blot, FIGS. 2A and 2B. It counts as cell-based. (A western blot detects proteins with antibodies after separation by electrophoresis.)
For the compound `O=[N+]([O-])c1ccccc1/C=C/C=C1c2ccccc2-c2ccccc21` [NSC-70220], the “inhibition of ERK activation” value was “selectively inhibits ERK activation”.
